Test results: PMC10552397 (Cell Communication and Signaling : CCS, 2023)
pEC50: −log10 of the molar value. Values joined by “and” are separate entries in the source; they are usually repeats but may differ in a detail not shown here. Equal values may be shown once.

Target: T1, proteins of HeLa wt cells (Homo sapiens, UniProt P30837)
T1 sequence (P30837 18-517): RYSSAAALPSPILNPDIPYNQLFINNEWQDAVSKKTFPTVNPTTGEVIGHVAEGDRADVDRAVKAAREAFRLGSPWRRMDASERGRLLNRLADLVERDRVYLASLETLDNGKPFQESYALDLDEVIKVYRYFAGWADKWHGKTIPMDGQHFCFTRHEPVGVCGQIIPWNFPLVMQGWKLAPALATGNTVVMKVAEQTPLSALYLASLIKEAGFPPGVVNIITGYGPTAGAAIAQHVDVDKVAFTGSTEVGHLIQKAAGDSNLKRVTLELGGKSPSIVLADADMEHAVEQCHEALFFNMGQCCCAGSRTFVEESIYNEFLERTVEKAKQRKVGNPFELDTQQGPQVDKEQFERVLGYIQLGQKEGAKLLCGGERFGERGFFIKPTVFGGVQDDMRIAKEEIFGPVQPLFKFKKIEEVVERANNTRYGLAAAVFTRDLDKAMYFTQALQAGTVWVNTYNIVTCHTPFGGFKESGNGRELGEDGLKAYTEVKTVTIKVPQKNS
Test: biochemical
Details: for normalized.Reporter.intensity: single replicates n1-n3
Protocol: Adherent cells were washed in the dish once with DPBS and harvested by Trypsin–EDTA (0.25%, Thermo Fisher Scientific, Waltham, MA, USA, #25,200,056) treatment. After addition of 35 mL DPBS, the cells were pelleted by centrifugation (300 rcf, 5 min, 4 °C), and washed twice by re-suspending and pelleting using 45 mL and 1 mL DPBS, respectively, to remove excess trypsin and for transfer into pre-weighed 2 mL Eppendorf tubes to determine the cell pellet wet weights as quality check after centrifugation (300 rcf, 5 min, 4 °C) and complete removal of the supernatant. Cells for TPP-TR were resuspended using 1 mL, and cells for TPP-CCR were resuspended using 0.4 mL ice-cold DPBS, respectively, supplemented with protease inhibitor cocktail (Roche, Basel, Switzerland, #5,892,791,001). […] Cell suspensions were shortly centrifuged (1 s or less) using a benchtop centrifuge to release trapped air and to achieve an even liquid level without pelleting the cells. The samples were then temperature treated by a 7 min pre-incubation at RT, 3 min temperature treatment in the PCR cycler (DNA Engine Tetrad 2, lid temperature 70 °C) at different temperatures (37 °C or 50 °C for TPP-CCR or the temperatures given in Table 2 for TPP-TR) and a 3 min post-incubation at RT in a metal heating block for uniform heat dissipation.
After temperature treatment, samples were supplemented with lysis buffer (final concentrations: 0.36 U/µL benzonase, 1.5 mM MgCl2, 1 mM Na3VO4, 10 mM NaF, 2.5 mM Na4P2O7, 0.8% w/v NP-40) for 1 h on ice. The lysates were cleared from cell debris as well as denatured and precipitated proteins by centrifugation at 20,000 rcf and 4 °C for 30 min. The total protein concentration of the resulting cell extracts containing the fraction of soluble, non-denatured proteins was determined (Pierce 660 nm Protein Assay, BSA as standard). Cell extracts were shock frozen in liquid nitrogen and stored at -80 °C. The three replicates for TPP-TR and TPP-CCR were prepared on consecutive days, respectively. The two (37 °C or 50 °C) x ten (concentrations) x three (replicates) = 60 TPP-CCR samples and two (treatment and control) x ten (temperatures) x three (replicates) = 60 TPP-TR samples were analyzed by LC–MS/MS. GRASP55 was additionally quantified from the TPP-TR samples by immunoblotting as described in the respective section.
For TPP-CCR, SP3 was performed as described with slight modifications to the original protocol using on average 5 µg total protein per sample and resulting in theoretically 5 µg peptides in 22 µL 50 mM triethylammonium bicarbonate per sample. For each of the two (treatment and control) x three (replicates) = six TPP-TR temperature treatment sample sets, the same volume for each of the ten temperature samples was used for SP3 processing, thus, maintaining the information about the temperature dependent non-denatured protein content. This volume was calculated such that the lowest two temperature samples (36.5 °C and 41.2 °C) contained 10 µg total protein on average. The samples were diluted using SDS containing buffer (20 µL final, final concentrations: 7.5% glycerol, 3% SDS, 37.5 mM Tris/HCl pH 7.0) and the proteins were reduced, alkylated, and precipitated on the solid phase as described using adjusted volumes (2 × due to processing 10 µg instead of 5 µg). Volumes for washing of the aggregated proteins on the solid phase and for tryptic digestion were kept unchanged, however, to maintain the maximal total protein to trypsin/Lys-C ratio at 50:1 in the two rounds of digestion (13 h and 4 h), respectively, 2 × 0.2 µg trypsin/Lys-C was used per sample, theoretically resulting in at most about 10 µg peptides in 22 µL 50 mM triethylammonium bicarbonate.

`CCCCCC1=C/C(=C/c2[nH]c(-c3ccc[nH]3)cc2OC)N=C1C` [Prodigiosin, prodigiosin] was tested, and the pEC50 was 8.36, the “diff pseudoR2(50-37°C)” value (ALDH1B1) was 0.88 and the “pseudoR2 (dose response curve fit, 37°C)” value (ALDH1B1, 37°C) was 0.0136. The normalized.Reporter.intensity (ALDH1B1, 37°C, 0.0976562 nM prodigiosin) was -0.04 and -1.95 and 1.19, the normalized.Reporter.intensity (ALDH1B1, 37°C, 0.390625 nM prodigiosin) was 0.86 and 1.70 and 1.19 and the normalized.Reporter.intensity (ALDH1B1, 37°C, 1.5625 nM prodigiosin) was 1.45 and -0.51 and 0.96. For the same compound, the normalized.Reporter.intensity (ALDH1B1, 37°C, 6.25 nM prodigiosin) was 2.17 and -0.34 and 2.41, the normalized.Reporter.intensity (ALDH1B1, 37°C, 25 nM prodigiosin) was 1.79 and 0.42 and 0.87 and the normalized.Reporter.intensity (ALDH1B1, 37°C, 100 nM prodigiosin) was -0.83 and -1.09 and 2.36. For the same compound, the normalized.Reporter.intensity (ALDH1B1, 37°C, 400 nM prodigiosin) was -1.07 and -1.13 and 1.65, the normalized.Reporter.intensity (ALDH1B1, 37°C, 1600 nM prodigiosin) was -1.06 and 0.17 and 2.67 and the normalized.Reporter.intensity (ALDH1B1, 37°C, 6400 nM prodigiosin) was -0.10 and 1.67 and -1.95. For the same compound, the “H (dose response curve fit parameters, 37°C)” value (ALDH1B1, 37°C, Hill slope of fit) was 1.47e-8, the “pseudoR2 (dose response curve fit, 50°C)” value (ALDH1B1, 50°C) was 0.89 and the normalized.Reporter.intensity (ALDH1B1, 50°C, 0.0976562 nM prodigiosin) was 0.23 and -0.0339 and 0.17. The normalized.Reporter.intensity (ALDH1B1, 50°C, 0.390625 nM prodigiosin) was 0.32 and 0.04 and 0.17, the normalized.Reporter.intensity (ALDH1B1, 50°C, 1.5625 nM prodigiosin) was 0.40 and 0.42 and 0.21 and the normalized.Reporter.intensity (ALDH1B1, 50°C, 6.25 nM prodigiosin) was 0.69 and 0.56 and 0.41. The normalized.Reporter.intensity (ALDH1B1, 50°C, 25 nM prodigiosin) was 0.66 and 0.74 and 0.67, the normalized.Reporter.intensity (ALDH1B1, 50°C, 100 nM prodigiosin) was 1.06 and 0.92 and 1.01 and the normalized.Reporter.intensity (ALDH1B1, 50°C, 400 nM prodigiosin) was 0.70 and 0.97 (2×). For the same compound, the normalized.Reporter.intensity (ALDH1B1, 50°C, 1600 nM prodigiosin) was 0.78 and 0.95 and 0.92, the normalized.Reporter.intensity (ALDH1B1, 50°C, 6400 nM prodigiosin) was 1.11 and 0.90 and 1.01 and the “H (dose response curve fit parameters, 50°C)” value (ALDH1B1, 50°C, Hill slope of fit) was 0.60.
